The results in this text go back to patent US9656953B2, “Inhibition of cell proliferation” (University of South Florida, priority 2005, dated 2017).

“Also recorded” adds a separate entry of the source.

Assay [1] relates to cyclin D kinase activity. In words: In vitro kinase assay, cyclin D. The assay is classed as biochemical. On the procedure:
In vitro kinase assay. The kinase reaction for Raf-1 was carried out with 100 nanograms (ng) of Raf-1 (Upstate Signaling, Charlottesville, Va.), 0.5 μg of full-length Rb protein (QED Bioscience, San Diego, Calif.) as the substrate, 10 μM ATP, 10 μCi of [γ-^32P] ATP in the kinase assay buffer in the presence or absence of the drugs at 30° C. for 30 minutes. Cyclin D and E kinase assays are described in (Dasgupta 2004).

Assay [2] addresses T1, Rb:Raf-1 binding (Homo sapiens, UniProt P04049+P06400).
T1 construct: a glutathione S-transferase (GST) Raf-1 (1-149aa) overnight at 4° C; made in house
Briefly: GST-Rb/GST-Raf-1 ELISA. Particulars: concentration that inhibits the Rb:Raf-1 binding by 50%, triplicate; read-out: IC50 (nM), inhibition of the Rb:Raf-1 binding. Here is the method:
In vitro library screening assays. Enzyme Linked ImmunoSorbent Assay (ELISA) 96-well plates were coated with 1 μg/mL of a glutathione S-transferase (GST) Raf-1 (1-149aa) overnight at 4° C. Subsequently the plates were blocked and GST Rb at 20 μg/mL was rotated at room temperature (RT) for 30 minutes in the presence or absence of the compounds at 20 micromolar (μM). GST-Rb +/− compounds were then added to the plate and incubated for 90 minutes (min) at 37° C. The amount of Rb bound to Raf-1 was detected by Rb polyclonal antibody (Santa Cruz Biotechnology, Santa Cruz, Calif.) 1:1000 incubated for 60 min at 37° C. Donkey-anti-rabbit-IgG-HRP (1:10,000) was added to the plate and incubated at 37° C. for 60 minutes. The color was developed with orthophenylenediamine (Sigma, St. Louis, Mo.) and the reaction was terminated with 3 molar (M) H2SO4. Absorbance was read at 490 nanometers (nm). To determine disruption of Rb to E2F1, Phb, or HDAC1 the above protocol was used with the exception of coating GST Rb on the ELISA plate and adding the drugs in the presence or absence of GST E2F1, Phb, or HDAC1. […] Prohibitin monoclonal antibody was used at 1:1000 to detect the amount of Rb bound to Prohibitin. For disruption of MEK-Raf-1 binding ELISAs, Raf-1 1 microgram/milliliter (μg/mL) was coated on the plate and GST-MEK (20 μg/mL) was incubated +/− the compounds for 30 minutes at room temperature. Mek1 polyclonal antibody was used at 1:1000 to detect the binding of Raf-1 to Mek1. The IC50 concentrations for the Rb:Raf-1 inhibitors were determined by plotting with Origin 7.5 software (Origin, Northampton, Mass.).
A screen was developed to identify small molecule inhibitors of the Rb:Raf-1 interaction. A diversity set, comprising 1981 compounds (National Cancer Institute, Bethesda, Md.) was examined using a glutathione S-transferase-retinoblastoma/glutathione S-transferase-Raf-1 kinase Enzyme-Linked ImmunoSorbent Assay screen (GST-Rb/GST-Raf-1 ELISA).
(An ELISA detects its analyte on a solid surface through an enzyme-linked reagent.)

The target in assay [3] is T2, Rb:Raf-1 interaction in tumor xenografts (Homo sapiens, UniProt P04049+P06400).
T2 construct: from tissue; host or cells: A549 xenograft tumors from nude mice
In words: IP-Western of tumor lysates, Rb:Raf-1. The assay is classed as in vivo, nude mice. Conditions: both doses. On the procedure:
(§1) Lysate preparation, pmmunoprecipitation, and pestern plotting.
At the end of the drug treatment, the A549 tumors were removed from the mice and fixed in formalin or snap frozen in liquid nitrogen for further histochemical analysis. The tumors were analyzed by immunohistochemistry staining with hematoxylin and eosin (H&E), TUNEL, Ki-67, phospho-Rb (807,811), and CD-31. […] Tumors were homogenized and lysates were prepared to assess the inhibition of Rb:Raf-1 interaction in vivo.

Assay [4] relates to H1650 cells. In words: Soft agar assay, H1650. The assay is classed as cell-based. On the procedure:
(§2) Soft Agar Assay. Soft agar assays were done in triplicate in 12-well plates (Corning, Corning N.Y.). First, the bottom layer of agar (0.6%) was allowed to solidify at room temperature. Next the top layer of agar was (0.3%) was mixed with 5,000 cells per well and the indicated drug. The drugs were added twice weekly in complete media to the agar wells. Colonies were quantified by staining with MTT (3-(4,5-Dimethylthiazol-2-yl)-2,5-diphenyltetrazolium bromide) 1 mg/mL for 1 hour at 37° C.
(§3) Experiments were also carried out to examine the effect of 3a in inhibiting the adherence-independent growth of cancer cells in soft agar.

Assay [5] concerns cdc6, cdc25A and TS promoters. In words: Chromatin immunoprecipitation (ChIP) assay, A549 cells. The assay is classed as cell-based, human. Conditions: 20 μM. Here is the method: Chromatin immunoprecipitation (ChIP) assay. A549 cells were rendered quiescent by serum starvation and re-stimulated with serum for 2h or 16h in the presence or absence of RRD 251 at 20μM. Cells were cross-linked with 1% formaldehyde for 10 minutes at room temperature. Subsequently, the cells were harvested and lysates were prepared. Immunoprecipitations were analyzed for the presence of E2F1, Rb, Raf-1, Brg1, HP1, and HDAC1 by PCR as previously described (Dasgupta 2004). Rabbit anti-mouse secondary antibody was used as the control for all reactions. The sequences of the PCR primers used in the PCRs were as follows: Cdc6 promoter (forward primer), 5′- […]-3′ (SEQ ID NO:1); and Cdc6 promoter (reverse primer), 5′-[…]-3′ (SEQ ID NO:2). TS promoter (forward primer), and 5′-GAC GGA GGC AGG CCA AGT G-3′ SEQ ID NO:3) TS promoter (reverse primer). The cdc25A and c-fos primers are described in (Dasgupta, 2004).
Since serum is known to stimulate the binding of Raf-1 to Rb and leads to the dissociation of the co-repressor Brg-1 from E2F-responsive proliferative promoters like cdc6, cdc25 and TS promoters, it was hypothesized that 3a may interfere with this process. […] Binding of E2F1, HDAC1 and HP1 was not affected.

Assay [6] deals with H1650 non-small cell lung cancer cell line. Briefly: BrdU incorporation, S-phase entry, H1650. The assay is classed as cell-based. Particulars: EGFR mutant NSCLC. Here is the method:
Proliferation assays. Bromodeoxyuridine (BrdU) labeling kits were obtained from Roche Biochemicals (Indianapolis, Ind.). Cells were plated in poly-D-lysine coated chamber slides at a density of 10,000 cells per well and rendered quiescent by serum starvation for 24 hours. Cells were then re-stimulated with serum in the presence or absence of the indicated drugs for 18 h. S-phase cells were visualized by microscopy and quantitated by counting 3 fields of 100 in quadruplicate.
Because many cancers contain more than one mutation in tumor suppressor genes or oncogenes, we determined the ability of 3a to inhibit proliferation in cell lines containing alterations in key regulatory genes.
(In general: Uptake of a labelled nucleoside into DNA is a usual measure of proliferation.)

The subject of assay [7] is binding of Raf-1 to Mek1/2. Briefly: IP-western, A-549 cells, Raf-1-Mek1/2. The assay is classed as cell-based, human.
Description: as §1

Assay [8] concerns A549 cells. Briefly: Soft agar assay, A549. The assay is classed as cell-based, human. Here is the method:
as §2, §3

Assay [9] deals with H1650 tumors. In words: H1650 xenograft in nude mice. The assay is classed as in vivo.

T2 sequence (P06400 whole entry): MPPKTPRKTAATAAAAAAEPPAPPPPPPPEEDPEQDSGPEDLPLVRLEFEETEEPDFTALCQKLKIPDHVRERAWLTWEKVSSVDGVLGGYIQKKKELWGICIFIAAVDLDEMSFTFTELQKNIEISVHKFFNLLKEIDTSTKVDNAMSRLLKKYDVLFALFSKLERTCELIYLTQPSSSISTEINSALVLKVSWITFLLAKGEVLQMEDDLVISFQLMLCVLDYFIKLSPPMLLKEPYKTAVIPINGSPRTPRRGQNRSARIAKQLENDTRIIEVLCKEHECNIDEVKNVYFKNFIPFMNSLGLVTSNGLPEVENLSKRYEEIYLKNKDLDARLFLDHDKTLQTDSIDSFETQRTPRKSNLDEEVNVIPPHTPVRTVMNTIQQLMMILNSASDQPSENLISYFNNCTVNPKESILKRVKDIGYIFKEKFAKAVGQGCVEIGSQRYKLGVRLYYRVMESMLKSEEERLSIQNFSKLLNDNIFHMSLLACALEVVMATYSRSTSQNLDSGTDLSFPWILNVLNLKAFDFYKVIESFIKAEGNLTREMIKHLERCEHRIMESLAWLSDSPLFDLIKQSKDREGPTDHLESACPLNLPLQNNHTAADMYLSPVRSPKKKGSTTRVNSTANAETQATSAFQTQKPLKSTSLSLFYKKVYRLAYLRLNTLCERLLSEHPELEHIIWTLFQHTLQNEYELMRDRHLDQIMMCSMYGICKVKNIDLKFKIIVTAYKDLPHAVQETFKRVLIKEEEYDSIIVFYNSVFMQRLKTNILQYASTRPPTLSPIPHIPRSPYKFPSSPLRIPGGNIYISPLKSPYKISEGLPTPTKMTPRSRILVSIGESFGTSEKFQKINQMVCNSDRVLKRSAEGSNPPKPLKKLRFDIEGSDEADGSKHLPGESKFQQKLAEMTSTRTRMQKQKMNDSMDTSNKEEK
T2 sequence (P04049 whole entry): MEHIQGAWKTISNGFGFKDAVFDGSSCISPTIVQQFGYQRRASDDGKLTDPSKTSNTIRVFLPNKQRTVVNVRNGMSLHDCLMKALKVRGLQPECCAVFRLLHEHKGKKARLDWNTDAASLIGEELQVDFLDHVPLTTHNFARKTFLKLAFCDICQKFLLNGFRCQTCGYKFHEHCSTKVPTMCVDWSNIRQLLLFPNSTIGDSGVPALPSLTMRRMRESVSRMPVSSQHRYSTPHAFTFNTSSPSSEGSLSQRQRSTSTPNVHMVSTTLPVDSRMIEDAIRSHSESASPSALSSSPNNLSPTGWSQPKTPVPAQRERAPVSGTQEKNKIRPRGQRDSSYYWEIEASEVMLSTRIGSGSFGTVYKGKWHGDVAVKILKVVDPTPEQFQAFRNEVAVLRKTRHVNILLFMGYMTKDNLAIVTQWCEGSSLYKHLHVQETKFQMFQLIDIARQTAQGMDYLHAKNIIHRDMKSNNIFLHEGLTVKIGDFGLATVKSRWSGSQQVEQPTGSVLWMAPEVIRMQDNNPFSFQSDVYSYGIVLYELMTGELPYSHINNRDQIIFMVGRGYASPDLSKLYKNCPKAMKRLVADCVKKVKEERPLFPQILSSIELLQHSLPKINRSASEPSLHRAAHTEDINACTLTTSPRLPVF
T1 sequence (P04049 1-149 limits assumed): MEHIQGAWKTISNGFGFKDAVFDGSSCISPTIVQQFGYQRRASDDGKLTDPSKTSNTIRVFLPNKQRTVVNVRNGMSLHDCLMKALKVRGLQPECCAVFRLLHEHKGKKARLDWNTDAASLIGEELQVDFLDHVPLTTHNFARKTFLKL
T1 sequence (P06400 whole entry): as the sequence (P06400 whole entry) above

What is called IC50 is the concentration at which inhibition is half-maximal. As for `Cl.N=C(N)SCc1ccc(Cl)cc1Cl` [Compound 3a], the “cyclin D kinase activity” value in assay [1] is “does not inhibit; also recorded: did not affect the kinase activities”. The IC50 in assay [2] came to 77 nM. In addition, in assay [3], the “Rb:Raf-1 interaction in tumor lysates” value is on record as “inhibit the Rb:Raf-1 interaction in tumor lysates”. Moreover, the “adherence-independent growth in soft agar, H1650” value in assay [4] was “significantly inhibited the growth”. For the same compound, in assay [5], the “Raf-1 binding to E2F-responsive promoters upon serum stimulation” value is recorded as “causes the dissociation of Raf-1; also recorded: disrupted”; the “binding of E2F1, HDAC1 and HP1 to promoters” value was “not affected”; the “dissociation of co-repressor Brg-1 from promoters” value is on record as “retention of Brg1; also recorded: inhibited”. For the same compound, the “inhibition of S-phase entry, H1650” value in [6] turned out to be 90%. The “serum-mediated binding of Raf-1 to Mek1/2” value in assay [7] is reported as “not affected”. For the same compound, the “adherence-independent growth in soft agar, A549” value in assay [8] is “significantly inhibited the growth”. Besides, the “H1650 tumor growth in words” value in assay [9] (50 mpk i.p.) is listed as “inhibited H1650 xenograft tumor growth; also recorded: inhibited the growth of these tumors significantly”. Also, the “tumor size, H1650 xenograft” value in [9] (50 mpk/day i.p., vehicle 2185±326 mm^3) was determined as 557±76 mm3.
